Experimental data reported in patent publication US20150174068A1, “Apparatus, Composition, and Related Methods for Transdermal Delivery of Active Ingredients” (CURE IP HOLDINGS, LLC, priority 2011, published 2015).
Where two headings read alike, the source gives them in different places.

Legend:
[1] = In vitro transdermal caffeine delivery, Franz diffusion cells, excised human epidermis; type: in vitro ADME; conditions: after application of the formulations
Protocol: Pre-clinical selection of topical formulations was performed using an in-vitro penetration study through human epidermal membrane, which assesses the percutaneous absorption profiles of applied drugs. The method is based on the use of excised human skin as a membrane in a diffusion system that simulates in-vivo skin conditions. By analyzing the amount of the drug reaching the receptor solution, the penetration profile of the drug in the skin can be assessed and used as a tool to determine the feasibility of formulations for subsequent development. Embodiments of the transdermal compositions were tested in an in vitro penetration study through human epidermis as a testing membrane to simulate topical drug delivery. In particular, excised human epidermis was utilized to assess the penetration profiles of caffeine. Two transdermal compositions were tested: Formulation A and Formulation B. […] Formulation A was tested with and without occlusion. Parafilm was applied for occlusion tests, and the samples were kept under occlusion during the period of the study. […] The materials for the assays were: […] Formulation A; and Formulation B. […] Therefore, each formulation contained radioactive caffeine of 50 μCi/mL. The mixtures were stored at a 4° C. refrigerator after preparation. […] The amount of radioactive caffeine was analyzed from the receptor fluid samples. […]

[2] = human, pH 7.4

amount of active ingredient that penetrated the epidermis ([2]; 5 %) | Structure (SMILES) | time to penetration of caffeine through the epidermis into the receptor chamber [1] [min] | amount of active ingredient that penetrated the epidermis [2]
Greater than 2% | C[C@]12CC[C@@H]3c4ccc(O)cc4CC[C@H]3[C@@H]1CC[C@@H]2O [estradiol] | – | –
– | CC(=O)O[C@H]1C(=O)[C@@]2(C)[C@H]([C@H](OC(=O)c3ccccc3)[C@]3(O)C[C@H](OC(=O)[C@H](O)[C@@H](NC(=O)c4ccccc4)c4ccccc4)C(C)=C1C3(C)C)[C@]1(OC(C)=O)CO[C@@H]1C[C@@H]2O [Paclitaxel, paclitaxel] | – | approximately 0.5%
Approximately 1% | Nc1nc2ncc(CNc3ccc(C(=O)N[C@@H](CCC(=O)O)C(=O)O)cc3)nc2c(=O)[nH]1 [folic acid] | – | –

Structure (SMILES) | amount of active ingredient that penetrated the epidermis ([2]; 5 %) | time to penetration of caffeine through the epidermis into the receptor chamber [1] [min] | amount of active ingredient that penetrated the epidermis [2]
Cn1c(=O)c2c(ncn2C)n(C)c1=O [caffeine] | Greater than 3% | ≤ 3 | greater than 1%
